Measurements published in patent US20130236527A1, “LICORICE LOLLIPOP THAT INHIBITS DENTAL CARIES FORMATION” (INTELLIHERB, LLC, priority 2008, published 2013).

Columns and labels:
[1] = test system: bacterial adherence; experiment: inhibition of bacterial adherence / dental caries formation
[2] = test system: S. mutans; experiment: anti-S. mutans bioactivity examination of extract batches; format: cell-based, Streptococcus mutans
Text: In addition to chemical analysis, all batches, or statistically relevant samples of continuous production processes (e.g., 1/3600 candies; or 1/5000 candies; or 1/10,000 candies or the like) or statistically relevant samples of candy production batches (e.g., 1/10 batches; or 1/20 batches; or 1/50 batches), are examined for bioactivity. While the pure compound of glycyrrhizol A has anti-S. mutans activity at 1 microgram per ml, the mixed compound usually has anti-S. mutans activity at 10-30 microgram per ml.

CC1(C)[C@@H](O[C@H]2O[C@H](C(=O)O)[C@@H](O)[C@H](O)[C@H]2O[C@@H]2O[C@H](C(=O)O)[C@@H](O)[C@H](O)[C@H]2O)CC[C@]2(C)[C@H]3C(=O)C=C4[C@@H]5C[C@@](C)(C(=O)O)CC[C@]5(C)CC[C@@]4(C)[C@]3(C)CC[C@@H]12 [glycyrrhizin]
inhibition of dental caries formation by inhibiting bacterial adherence [1]: can inhibit formation of dental caries by inhibiting bacterial adherence

COc1c(CC=C(C)C)c(O)cc2c1-c1oc3cc(O)c(CC=C(C)C)cc3c1CO2 [Glycyrrhizol A]
anti-S. mutans activity at (concentration) [2]: 1 microgram per ml
